According to patent US20070134733A1, “Raman signature probes and their use in the detection and imaging of molecular processes and structures” (Parallax Biosystems, Inc., priority 2003, published 2007):

molecular target: T1, NADH-dependent enoyl acyl carrier reductase (FabI) (Escherichia coli, UniProt P0AEK4); test: FabI enzyme inhibition assay (NADH consumption, absorbance at 340 nm); assay type: biochemical, bacteria; settings: purified HIS-tagged FabI enzyme, NADH and substrate (e.g. Malonyl CoA or Crotonyl CoA)
T1 construct: made in house; host or cells: recombinant bacteria (strain from Dr. Charles Rock, St. Jude Children's Research Hospital)
T1 sequence (P0AEK4 whole entry): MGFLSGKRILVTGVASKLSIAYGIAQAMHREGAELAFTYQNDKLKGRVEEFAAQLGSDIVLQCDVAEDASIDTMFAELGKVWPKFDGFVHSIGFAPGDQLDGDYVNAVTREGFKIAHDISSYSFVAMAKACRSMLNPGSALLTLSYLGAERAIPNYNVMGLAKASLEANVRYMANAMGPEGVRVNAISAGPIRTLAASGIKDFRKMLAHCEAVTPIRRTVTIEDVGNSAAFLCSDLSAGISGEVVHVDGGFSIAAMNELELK
Source text: Prior to using the potential RSP compounds as probes to detect bacteria the modified compounds will be tested for their ability to inhibit FabI. As shown with numerous studies that have explored the structure activity relationship of other FabI inhibitor analogs, there is a good correlation between the ability of a compound to inhibit the enzyme and its affinity towards the enzyme (Seefeld et al., Bioorg. Med. Chem. Lett. 11 (2001) 2061-2065). Recombinant bacteria expressing a HIS-tagged FabI protein are available from Dr. Charles Rock at St. Jude Children's Research Hospital in Memphis Tenn. The overexpressed protein is readily purified as a bioactive enzyme using conventional Ni^2+ chromatographic methods (Heath & Rock, J. Biol. Chem. 270 (1995) 26538-26542). Enzyme assays will be performed as described by Bergler et al. (J. Biol. Chem. 269 (1994) 5493-5496). Briefly, purified HIS-tagged FabI enzyme is added to a reaction containing NADH and an appropriate substrate (e.g. Malonyl CoA or Crotonyl CoA). The reductase activity is assayed by monitoring the decrease in absorbance at 340 nm due to the consumption of NADH. The inhibitory activity of all RSPs will be compared with Compound 1.

Point of comparison: N#Cc1ccc(Cn2c3c(c4ccccc42)CCN(C(=O)c2ccc(Cl)cc2)C3)cc1 [Compound 1A], EC50 2.52 µM. Against it:
- Nc1ccc(Cn2c3c(c4ccccc42)CCN(C(=O)c2ccc(O)cc2)C3)cc1 [Compound 1, reference compound] — 3.8-fold lower, 0.67 µM
- [2H]c1c([2H])c([2H])c(C(=O)N2CCc3c(n(Cc4ccc(F)cc4)c4ccccc34)C2)c([2H])c1[2H] [Compound 1B] — 1.7-fold lower, 1.5 µM
- N#Cc1ccc(Cn2c3c(c4ccccc42)CCN(C(=O)c2ccc(Br)cc2)C3)cc1 [Compound 1C] — within 1.5-fold, 2.53 µM
- CC#CCn1c2c(c3ccccc31)CCN(C(=O)c1ccc(Cl)cc1)C2 [Compound 1D] — 2.4-fold higher, 6.01 µM
- [2H]C([2H])([2H])C([2H])([2H])n1c2c(c3ccccc31)CCN(C(=O)c1ccc(Cl)cc1)C2 [Compound 1E] — 3.1-fold higher, 7.83 µM
